From patent publication US20020010113A1, “Composition” (Colgate-Palmolive Company, priority 1999, published 2002)

Key:
[1] = tested on: stratum corneum of pig skin; conditions: stratum corneum immersed in 5% solution; weight at 90% relative humidity vs dry weight at 0% relative humidity
Text: The epidermis of full thickness pig skin (Animal Technologies, Tyler, Tex.) was removed using a Packard Instruments dermatome, and the stratum corneum was removed via trypsin digestion. Pieces of stratum corneum were then immersed in millipore water, a 5% choline chloride (Aldrich Chemical, Milwaukee, Wis.), or a 5% glycerin solution. Using a dynamic vapour sorption meter (Surface Measurement Systems, Coopersburg, Pa.), the skin was equilibrated under a 0% relative humidity environment until the change in weight varied no more than 0.005% per min. This weight was recorded as the dry weight. The relative humidity was then increased to 90%. The skin was equilibrated at this humidity until the change in weight varied no more than 0.005% per min. This weight was, likewise, recorded and the % water uptake was calculated.

[2] = tested on: Full thickness Yucatan swine skin; conditions: (3H3C)-choline in 25% shower gel solution (100 mg choline chloride per 20 ml); two 5 minute applications, each rinsed with 10 ml distilled water
Protocol: The radiolabelling experiment described in this example was carried out to quantify the amount of choline that could adhere to the skin following a water rinse. Full thickness Yucatan swine skin (Charles River, Inc., Wilmington, Mass.) was mounted (dermis side down) onto a special sample holder, the dimensions of which were previously described in U.S. Pat. No. 4,836,014. This sample holder exposed approximately 4.91 cm^2 of the skin. A 1 ml aliquot of (^3H3C)-choline (American Radiolabel Chemicals, Inc., St. Louis, Mo.) containing shower gel was next applied to the surface of the exposed skin. […] After five minutes had elapsed, the shower gel was removed, and the surface of the skin was rinsed with 10 ml of distilled water. A second 1 ml aliquot of the (^3H3C)-choline containing shower gel was then reapplied to the skin. Again, after a 5 minute exposure time, the shower gel was removed and the skin rinsed with 10 ml of distilled water. The skin sample was then removed from its sample holder and air-dried for 10 minutes. Four 4 mm diameter punches were collected from each piece of treated skin, oxidized in a Packard oxidizer, and counted in a Packard 2000 Tri-carb liquid scintillation analyzer (Packard Instruments Inc., Downers Grove, Ill.). To obtain the specific activity, 0.1 ml of the (^3H3C)-choline containing shower gel was counted in the Packard 2000 analyzer.

SMILES | % Water Uptake [1] [%] | amount of choline remaining on the skin following a water rinse [2] [μg/cm^2]
C[N+](C)(C)CCO.[Cl-] [5% Choline, choline chloride] | 89 ± 14 | 33
OCC(O)CO [5% Glycerin, glycerin, reference compound] | 75 ± 6 | 
